Where two headings read alike, the source gives them in different places.
Key:
[1] = tested on: MYC protein expression in MCF-7 breast cancer cells; assay: Western blotting of MYC protein level in MCF-7 cells; type: cell-based, human; conditions: Homo sapiens, MCF7; western blotting, MCF-7 cells, 0.5, 1, 2, and 4 μM, 24 hours; read-out: MYC Inhibition
In short: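 Immunoblotting with ECL detection quantified MYC, with GAPDH (1:2000) as reference and anti-MYC at 1:1000.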

[2] = tested on: NCI-60 cancer cell lines; assay: NCI-60 cancer cell line drug screen (GI50, MGM); type: cell-based, human; conditions: Homo sapiens; for GI50: read-out: Antiproliferative Activities [GI50 (μM)]
Protocol: Cancer cells were incubated with the test compounds at five concentrations ranging from 100 μM to 10 nM for 48 h. […] The approximate average of GI50 values across the entire panel of NCI-60 cancer cell lines for each compound was recorded as the MGM value.

[3] = target: T1, human topoisomerase I (Homo sapiens, UniProt P11387); conditions: relative topoisomerase I inhibition levels, previously determined, six levels (0 - 5, +++++ = 5); cited from earlier work
T1 sequence (P11387 1-765): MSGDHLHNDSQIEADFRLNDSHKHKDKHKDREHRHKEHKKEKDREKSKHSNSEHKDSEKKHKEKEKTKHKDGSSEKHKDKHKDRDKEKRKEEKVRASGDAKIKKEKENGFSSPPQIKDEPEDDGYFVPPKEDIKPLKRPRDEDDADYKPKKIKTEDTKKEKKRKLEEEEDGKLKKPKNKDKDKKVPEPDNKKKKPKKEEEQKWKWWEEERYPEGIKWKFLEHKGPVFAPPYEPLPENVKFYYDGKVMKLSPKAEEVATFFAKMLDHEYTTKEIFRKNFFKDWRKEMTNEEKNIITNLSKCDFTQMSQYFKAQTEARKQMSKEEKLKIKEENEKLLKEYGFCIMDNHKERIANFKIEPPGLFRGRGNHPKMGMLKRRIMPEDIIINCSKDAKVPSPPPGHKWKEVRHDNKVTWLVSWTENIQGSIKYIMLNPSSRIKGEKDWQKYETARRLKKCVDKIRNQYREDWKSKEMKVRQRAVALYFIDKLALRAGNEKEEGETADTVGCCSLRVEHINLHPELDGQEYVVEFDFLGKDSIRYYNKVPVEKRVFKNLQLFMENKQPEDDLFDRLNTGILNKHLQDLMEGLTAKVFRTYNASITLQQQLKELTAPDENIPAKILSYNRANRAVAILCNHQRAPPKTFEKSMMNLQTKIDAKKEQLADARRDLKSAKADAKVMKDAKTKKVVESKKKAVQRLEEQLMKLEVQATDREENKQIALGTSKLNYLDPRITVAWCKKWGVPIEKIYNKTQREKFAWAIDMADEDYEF

Q: With `CNCCCn1c2c(c3ccc(Cl)cc3c1=O)C(=O)c1cc(OC)cnc1-2` [Compound 3] as the compound, how does the minimal effective concentration [1] read?
A: Its minimal effective concentration is 0.5 to 1 µM.

Q: And the GI50 ([2]; 786-0, Renal Cancer, 786-0)?
A: The GI50 was 0.32 µM.

Q: And the GI50 ([2]; A498, Renal Cancer, A498)?
A: Its GI50 is 0.53 µM.

Q: And the GI50 ([2]; A549, Non-Small Cell Lung Cancer, A549/ATCC)?
A: Its GI50 is 0.45 µM.

Q: And the GI50 ([2]; ACHN, Renal Cancer, ACHN)?
A: The GI50 was 0.22 µM.

Q: What about the GI50 ([2]; BT-549, Breast Cancer, BT-549) of the same compound?
A: The GI50 was 0.65 µM.

Q: And the GI50 ([2]; CAKI-1, Renal Cancer, CAKI-1)?
A: The GI50 was 0.06 µM.

Q: And the GI50 ([2]; CCRF-CEM, Leukemia, CCRF-CEM)?
A: The GI50 was 0.06 µM.

Q: What about the GI50 ([2]; COLO 205, Colon Cancer, COLO 205) of the same compound?
A: Its GI50 is 0.5 µM.

Q: And the GI50 ([2]; DU-145, Prostate Cancer, DU-145)?
A: Its GI50 is 0.33 µM.

Q: And the GI50 ([2]; EKVX, Non-Small Cell Lung Cancer, EKVX)?
A: The GI50 was 1.2 µM.

Q: What about the GI50 ([2]; HCC 2998, Colon Cancer, HCC-2998) of the same compound?
A: Its GI50 is 1.41 µM.

Q: And the GI50 ([2]; HCT-15, Colon Cancer, HCT-15)?
A: Its GI50 is 1.11 µM.

Q: And the GI50 ([2]; HCT-116, Colon Cancer, HCT-116)?
A: The GI50 was 0.55 µM.

Q: What about the GI50 ([2]; HL-60, Leukemia, HL-60(TB)) of the same compound?
A: Its GI50 is 0.6 µM.

Q: And the GI50 ([2]; HOP-62, Non-Small Cell Lung Cancer, HOP-62)?
A: Its GI50 is 0.22 µM.

Q: What about the GI50 ([2]; HOP-92, Non-Small Cell Lung Cancer, HOP-92) of the same compound?
A: Its GI50 is 1.19 µM.

Q: What about the GI50 ([2]; HT-29, Colon Cancer, HT29) of the same compound?
A: Its GI50 is 1.08 µM.

Q: And the GI50 ([2]; Hs-578T, Breast Cancer, HS 578T)?
A: The GI50 was 1.84 µM.

Q: What about the GI50 ([2]; IGROV-1, Ovarian Cancer, IGROV1) of the same compound?
A: The GI50 was 1.14 µM.

Q: And the GI50 ([2]; K562, Leukemia, K-562)?
A: Its GI50 is 1.14 µM.

Q: And the GI50 ([2]; KM12, Colon Cancer, KM12)?
A: The GI50 was 1.1 µM.

Q: And the GI50 ([2]; LOX IMVI, Melanoma, LOX IMVI)?
A: Its GI50 is 0.16 µM.

Q: And the GI50 ([2]; Leukemia, SR)?
A: The GI50 was 0.14 µM.

Q: And the GI50 ([2]; MCF7, Breast Cancer, MCF7)?
A: Its GI50 is 0.05 µM.

Q: And the GI50 ([2]; MDA-MB-231, Breast Cancer, MDA-MB-231/ATCC)?
A: The GI50 was 1.62 µM.

Q: And the GI50 ([2]; MDA-MB-435, Melanoma, MDA-MB-435)?
A: The GI50 was 1.07 µM.

Q: And the GI50 ([2]; MDA-MB-468, Breast Cancer, MDA-MB-468)?
A: The GI50 was 1.28 µM.

Q: And the GI50 ([2]; MOLT-4, Leukemia, MOLT-4)?
A: Its GI50 is 0.04 µM.

Q: What about the GI50 ([2]; Malme-3M, Melanoma, MALME-3M) of the same compound?
A: Its GI50 is 1.48 µM.

Q: What about the GI50 ([2]; Melanoma, M14) of the same compound?
A: The GI50 was 0.57 µM.

Q: And the GI50 ([2]; NCI-H23, Non-Small Cell Lung Cancer, NCI-H23)?
A: Its GI50 is 0.92 µM.

Q: What about the GI50 ([2]; NCI-H226, Non-Small Cell Lung Cancer, NCI-H226) of the same compound?
A: The GI50 was 1.35 µM.

Q: And the GI50 ([2]; NCI-H322M, Non-Small Cell Lung Cancer, NCI-H322M)?
A: The GI50 was 1.28 µM.

Q: And the GI50 ([2]; NCI-H460, Non-Small Cell Lung Cancer, NCI-H460)?
A: The GI50 was 0.05 µM.

Q: What about the GI50 ([2]; NCI-H522, Non-Small Cell Lung Cancer, NCI-H522) of the same compound?
A: The GI50 was 0.37 µM.

Q: And the GI50 ([2]; OVCAR-3, Ovarian Cancer, OVCAR-3)?
A: Its GI50 is 1.41 µM.

Q: What about the GI50 ([2]; OVCAR-4, Ovarian Cancer, OVCAR-4) of the same compound?
A: Its GI50 is 1.27 µM.

Q: What about the GI50 ([2]; OVCAR-5, Ovarian Cancer, OVCAR-5) of the same compound?
A: The GI50 was 1.69 µM.

Q: What about the GI50 ([2]; OVCAR-8, Ovarian Cancer, OVCAR-8) of the same compound?
A: The GI50 was 1.18 µM.

Q: And the GI50 ([2]; Ovarian Cancer, NCl/ADR-RES)?
A: Its GI50 is 0.54 µM.

Q: And the GI50 ([2]; Prostate Cancer, PC-3)?
A: Its GI50 is 1.02 µM.

Q: And the GI50 ([2]; RPMI-8226, Leukemia, RPMI-8226)?
A: The GI50 was 1.47 µM.

Q: And the GI50 ([2]; RXF 393, Renal Cancer, RXF 393)?
A: The GI50 was 1.3 µM.

Q: What about the GI50 ([2]; Renal Cancer, U0-31) of the same compound?
A: The GI50 was 1.08 µM.

Q: What about the GI50 ([2]; SF-268, CNS Cancer, SF-268) of the same compound?
A: The GI50 was 0.4 µM.

Q: What about the GI50 ([2]; SF-295, CNS Cancer, SF-295) of the same compound?
A: Its GI50 is 0.13 µM.

Q: And the GI50 ([2]; SF-539, CNS Cancer, SF-539)?
A: Its GI50 is 0.73 µM.

Q: And the GI50 ([2]; SK-MEL-2, Melanoma, SK-MEL-2)?
A: The GI50 was 13.2 µM.

Q: And the GI50 ([2]; SK-MEL-5, Melanoma, SK-MEL-5)?
A: The GI50 was 1.12 µM.

Q: And the GI50 ([2]; SK-MEL-28, Melanoma, SK-MEL-28)?
A: The GI50 was 1.62 µM.

Q: What about the GI50 ([2]; SK-OV-3, Ovarian Cancer, SK-OV-3) of the same compound?
A: The GI50 was 0.66 µM.

Q: And the GI50 ([2]; SN12C, Renal Cancer, SN12C)?
A: The GI50 was 1.18 µM.

Q: What about the GI50 ([2]; SNB-19, CNS Cancer, SNB-19) of the same compound?
A: Its GI50 is 0.61 µM.

Q: And the GI50 ([2]; SNB-75, CNS Cancer, SNB-75)?
A: The GI50 was 0.26 µM.

Q: And the GI50 ([2]; SW-620, Colon Cancer, SW-620)?
A: The GI50 was 0.08 µM.

Q: And the GI50 ([2]; T47D, Breast Cancer, T-47D)?
A: The GI50 was 1.12 µM.

Q: And the GI50 ([2]; U-251, CNS Cancer, U251)?
A: The GI50 was 0.3 µM.

Q: And the GI50 ([2]; UACC-62, Melanoma, UACC-62)?
A: The GI50 was 0.57 µM.

Q: And the GI50 ([2]; UACC-257, Melanoma, UACC-257)?
A: The GI50 was 2.24 µM.

Q: What about the mean GI50 across NCI-60 panel (MGM) ([2]; average of GI50 values across the entire panel of NCI-60 cancer cell lines) of the same compound?
A: Its mean GI50 across NCI-60 panel (MGM) is 600 nM.

Q: What about the “Top1 Inhibiton” value [3] of the same compound?
A: The value was “++ (medium inhibition, ++, MYC expression inhibited at 2.0 μM, or no clear dose-dependent MYC inhibition)”.
